Test results: paper PMC6486640, “The ATPase mechanism of UvrA2 reveals the distinct roles of proximal and distal ATPase sites in nucleotide excision repair” (Nucleic Acids Research, 2019)
Values belong to the molecule of their own block, whether it stands above or below them.

How the values were obtained:
[1] = target: T1, T. maritima UvrA Δ117-399 (Thermotoga maritima, UniProt Q9WYV0, DEL117-399); test: X-ray crystal structure, […] Å; type: binding; conditions: ADP in proximal and distal sites
T1 construct: internal deletion of 117-399; preparation in Supplementary Data
T1 sequence (Q9WYV0 other isoform, or with tags, fused parts or gaps DEL117-399): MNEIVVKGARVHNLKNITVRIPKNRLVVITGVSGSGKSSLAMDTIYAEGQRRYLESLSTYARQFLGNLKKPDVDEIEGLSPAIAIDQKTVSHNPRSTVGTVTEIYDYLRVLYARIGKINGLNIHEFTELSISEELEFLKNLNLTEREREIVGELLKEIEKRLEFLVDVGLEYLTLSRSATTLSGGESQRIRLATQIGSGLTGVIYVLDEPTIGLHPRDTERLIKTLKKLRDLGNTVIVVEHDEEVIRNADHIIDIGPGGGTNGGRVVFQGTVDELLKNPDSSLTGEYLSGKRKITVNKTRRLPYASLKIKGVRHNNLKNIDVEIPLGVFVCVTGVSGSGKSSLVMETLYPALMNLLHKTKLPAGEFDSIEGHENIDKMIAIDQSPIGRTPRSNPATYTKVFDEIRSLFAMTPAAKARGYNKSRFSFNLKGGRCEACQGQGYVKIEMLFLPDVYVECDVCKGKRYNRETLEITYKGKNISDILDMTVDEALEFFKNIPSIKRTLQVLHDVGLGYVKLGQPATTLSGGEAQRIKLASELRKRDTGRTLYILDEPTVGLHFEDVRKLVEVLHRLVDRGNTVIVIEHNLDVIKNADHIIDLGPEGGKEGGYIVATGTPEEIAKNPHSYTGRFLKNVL

UvrA2 = target: T2, UvrA2 (Geobacillus stearothermophilus, UniProt A0ACH1EC70); test: global fit of pre-steady state Pi release (MDCC-PBP stopped-flow), KinTek Explorer; type: biochemical; conditions: no DNA; pH 7.4, 5 mM MgCl2, 40°C; distal (high-affinity) sites; best-fit model value; proximal sites are a weaker second site
T2 construct: gene uvrA; pET28a-NHis-UvrA, N-terminal His tag, expressed in E. coli Rosetta (DE3) pLysS; heat-treated to remove ADP; homodimer with proximal and distal ATPase sites per monomer
Excerpt: global fit of pre-steady state Pi release (MDCC-PBP stopped-flow), KinTek Explorer on UvrA2

[2] = target: UvrA2 (UvrA dimer, wild type) (Geobacillus stearothermophilus, UniProt A0ACH1EC70 1-952); test: fluorescence anisotropy; 0-250 nM UvrA2, 7.5 nM DNA; Equilibrium fluorescence anisotropy, 7.5 nM DNA, 0-250 nM UvrA2; anisotropy buffer and temperature not in the material (other assays of the paper: 20 mM Tris-HCl pH 7.4, 0.15 M NaCl, 5% glycerol, 5 mM MgCl2, 5 mM DTT, 40 C); conditions: protein: recombinant, tags: N-terminal His (pET28a-NHis-UvrA), chain copies: 2, blunt

Molecule: Nc1ncnc2c1ncn2[C@@H]1O[C@H](COP(=O)(O)OP(=O)(O)O)[C@@H](O)[C@H]1O [ADP]
X-ray crystal structure, 2.0 Å [1]: the fully ADP-bound structure reported here further supports this hypothesis

Best-fit values (UvrA2): 1 µM
Molecule: Nc1ncnc2c1ncn2[C@@H]1O[C@H](COP(=O)(O)OP(=O)(O)OP(=O)(O)O)[C@@H](O)[C@H]1O [ATP]

B1: fluorescein lesion DNA, 50 bp duplex (dsDNA)
DNA 1: CCTGTCAGCTCGTTCTGAGTTCCAGTAGTAATGTGGCCGTAAGTAATCCA
DNA 2: TGGATTACTTACGGCCACATTACTACTGGAACTCAGAACGAGCTGACAGG
modifications: internal fluorescein-dT (iFluorT) at position 26 of strand 1, acts as lesion
Kd ([2]; label: internal fluorescein (strand 1, T26)): 12 ± 2 nM

B2: native (undamaged) DNA, 50 bp duplex (dsDNA)
DNA 1: TGGATTACTTACGGCCACATTACTACTGGAACTCAGAACGAGCTGACAGG
DNA 2: CCTGTCAGCTCGTTCTGAGTTCCAGTAGTAATGTGGCCGTAAGTAATCCA
Kd ([2]; label: 5' 6-FAM on strand 1 (template)): 45 ± 7 nM
